Data reported in patent EP4759814A1, “TRICYCLIC COMPOUND AND USE THEREOF AS MAT2A INHIBITOR” (SK Biopharmaceuticals Co., Ltd., priority 2023, dated 2025).
Like-named read-outs stand apart in the source and are kept apart here.

Experiments:
[1] = tested on: HCT116 (MTAP WT) cell line; assay: Cell proliferation inhibition in wild-type control cells, WST-1 assay; format: cell-based; conditions: maximum concentration 10 µM, read-out: HCT116 WT (IC50, cell proliferation inhibited by 50%)
Experimental: (§1) The HCT116 (MTAP del) cell line, which is a colorectal cancer cell line with deletion of MTAP gene, was treated with a compound according to an embodiment of the present application as a MAT2A inhibitor, and after culturing for 120 hours, the change in the number of cells was measured with a WST-1 assay reagent. The WST-1 assay is an assay that measures the number of cells by measuring the generation of a chromogenic substance called formazan from tetrazolium salts by intracellular mitochondrial dehydrogenase. In addition, as a control group, a wild-type colorectal cancer HCT116 (MTAP WT) cell line containing the MTAP gene was used to perform the experiment in the same manner as the experimental group.
(§2) Cell lines and reagents: HCT116 (MTAP WT (catalog number HD PAR-034), MTAP del (catalog number HD R02-033)) cell lines were purchased from Horizon Discovery (USA), and RPMI1640 medium (catalog number 22400-093), FBS (Fetal Bovine serum, catalog number 16000044), and Penicillin/Streptomycin (catalog number 15140-122) were purchased from GIBCO (USA). WST-1 (catalog number EZ-BULK150) was purchased from Dogen (Korea).
(§3) Experimental procedure: HCT116 (MTAP WT, MTAP del) cell lines were dispensed into a 96-well plate at a concentration of 1,000 cells/well in RPMI1640 culture medium containing 10% FBS and 1% Penicillin/Streptomycin, and allowed to attach for 24 hours. When the cells were attached to the plate, the drug was diluted 4-fold from a maximum concentration of 10 µM and treated on the cells. After 120 hours of drug treatment, 20 µL of WST-1 solution was treated for 2 hours, and absorbance at 450 nm was measured using SpectraMax M4 (Molecular Devices). Data analysis was calculated by taking the DMSO control group value as 100%. For the IC50 value, the concentration at which cell proliferation is inhibited by 50% was calculated through interpolation using a 4-parameter fit of the dose-response curve using the GraphPad Prism 8.4.3 program. The cancer cell proliferation inhibitory ability and selectivity in MTAP-deficient cancer cells of the compounds according to an embodiment of the present application are described in Table 3 (+++: 1 to 100 nM, ++: more than 100 to 1,000 nM, +: more than 1 to 10 µM, -: more than 10 µM).

[2] = molecular target: T1, MAT2A (Homo sapiens, UniProt P31153); assay: MAT2A inhibitory activity, colorimetric phosphate detection (PiColorLock) enzyme assay; format: biochemical; conditions: Test Condition 1 or 2 (not stated which per compound); absorbance at 630 nm
T1 construct: purchased BPS Bioscience (USA) 71401
T1 sequence (P31153 whole entry): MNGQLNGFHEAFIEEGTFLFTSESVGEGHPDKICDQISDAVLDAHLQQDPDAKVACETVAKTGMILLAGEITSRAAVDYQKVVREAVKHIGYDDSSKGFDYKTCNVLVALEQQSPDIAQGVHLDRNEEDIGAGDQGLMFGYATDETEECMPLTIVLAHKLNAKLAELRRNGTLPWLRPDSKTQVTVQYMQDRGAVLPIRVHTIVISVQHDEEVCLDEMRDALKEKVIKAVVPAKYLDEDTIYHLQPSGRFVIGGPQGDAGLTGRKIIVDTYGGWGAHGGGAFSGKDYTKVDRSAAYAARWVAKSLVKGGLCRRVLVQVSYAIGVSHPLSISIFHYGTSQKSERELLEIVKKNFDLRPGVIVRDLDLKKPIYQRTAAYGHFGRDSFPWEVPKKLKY
Experimental: In vitro assay: Methionine and adenosine triphosphate (ATP) are converted into S-adenosylmethionine (SAM) and inorganic phosphate (pi) via the catalytic action of methionine adenosyltransferase 2A (MAT2A). The produced pi is detected by the PiColorLock™ Phosphate Detection Reagent, which is a colorimetric assay, and the activity of MAT2A can be evaluated according to the amount of pi generated during the enzyme reaction. Each compound was evaluated under Test Condition 1 or 2 as described below.
• Concentration of MAT2A inhibitor: maximum concentration of 50 µM, 5-fold dilution (7 groups in total) • MAT2A concentration: 12 ng/µL • ATP and Met concentration: 100 µM, 80 µM
• Concentration of MAT2A inhibitor: maximum concentration of 1 µM, 3-fold dilution (7 groups in total) • MAT2A concentration: 4 ng/µL • ATP and Met concentration: 300 µM, 150 µM • Reagents: Methionine (catalog number M5308) and ATP (catalog number A2383) were purchased from Sigma-Aldrich (USA). MAT2A (catalog number 71401) was purchased from BPS Bioscience (USA), and PiColorLock™ Phosphate Detection Reagent (catalog number 303-0030) was purchased from Novus (USA).
Assay buffer composition: 50 mM Tris-HCl pH 8.0, 50 mM KCI, 15 mM MgCl2, 0.3 mM EDTA, 0.005 % (w/v) BSA
Experimental procedure: Each compound was diluted 5-fold or 3-fold based on the maximum concentration (5 mM or 1 mM or 0.1 mM) using DMSO. The diluted compounds were diluted 20-fold using assay buffer, and then mixed at a volume ratio of 1:2 with MAT2A (30 ng/µL or 10 ng/µL) diluted with assay buffer and treated for 30 minutes at room temperature. The negative control group is a group untreated with both the MAT2A enzyme and the compound according to an embodiment of the present application, and the positive control group is a group treated only with the MAT2A enzyme and untreated with the compound according to an embodiment of the present application.
In each well of a 384-well plate, 30 µL of the mixed solution and 20 µL of a 1:1 mixed solution of ATP (0.5 mM or 1.5 mM) and Met (0.4 mM or 0.75 mM) were mixed and then treated for 1 hour at room temperature. After the enzyme reaction, 13 µL of a 100:1 mixed solution of PiColorLockTM and Accelerator was treated in each well and reacted for 5 minutes at room temperature. After treating 5 µL of Stabilizer in each well and reacting for 25 minutes at room temperature, the absorbance at 630 nm was measured using SpectraMax M4 (Molecular Devices, USA) to calculate the IC50 value of the compound.
Analysis method: The enzyme activity (%) of each experimental group was calculated as {(average O.D. of compound-treated group - average O.D. of negative control group)/(average O.D. of positive control group - average O.D. of negative control group)} * 100. After preparing a dose-response curve (4-parameter) using the enzyme activity according to the treatment concentration of each compound in GraphPad Prism 9, the 50 % of enzyme inhibitory activity value (IC50) was calculated through non-linear regression analysis. The IC50 results measured for the MAT2A activity inhibitory ability of the compounds according to an embodiment of the present application are shown in Table 2 (+++: more than 1 to 100 nM, ++: more than 100 to 1,000 nM, +: more than 1,000 to 10,000 nM, -: more than 10,000 nM).

[3] = tested on: HCT116 (MTAP del) cell line; assay: Cell proliferation inhibition in MTAP-deficient cancer cells, WST-1 assay; format: cell-based; conditions: maximum concentration 10 µM, read-out: HCT116 MTAP^-/- (IC50, cell proliferation inhibited by 50%)
Experimental: as §1, §2, §3

[4] = Homo sapiens, HCT-116, 120 h, 120 hours of drug treatment
[5] = Homo sapiens, HCT-116, 120 hours of drug treatment

| Structure (SMILES) | IC50 [2] [nM] | IC50 [1, 5] [nM] | IC50 [3, 5] [nM] | IC50 ([1]; 120 hours of drug treatment) [nM] | IC50 ([3]; 120 hours of drug treatment) [nM] | IC50 [3, 4] [nM] |
| --- | --- | --- | --- | --- | --- | --- |
| Cc1ccccc1-n1c(=O)c2nccn2c2ccc(Cl)cc21 (atropisomer, axis not shown; (Ra)) [Example 20, (Ra)-7-chloro-5-(o-tolyl)imidazo[1,2-a]quinoxalin-4(5H)-one] | > 10000 | – | – | > 10000 | > 10000 | – |
| Cc1ccccc1-n1c(=O)c2nccn2c2ccc(Cl)cc21 (atropisomer, axis not shown; (Sa)) [Example 21, (Sa)-7-chloro-5-(o-tolyl)imidazo[1,2-a]quinoxalin-4(5H)-one] | 1 to 100 | – | – | > 10000 | 1 to 100 | – |
| Cc1ncccc1-n1c(=O)c2nccn2c2cc(Cl)c(Br)cc21 (atropisomer, axis not shown; (Sa)) [Example 81, (Sa)-7-bromo-8-chloro-5-(2-methylpyridin-3-yl)imidazo[1,2-a]quinoxalin-4(5H)-one] | – | – | – | 1000 to 10000 | – | 1 to 100 |
| Cc1cc2c(cc1C(F)(F)F)n(-c1cccnc1C)c(=O)c1nccn12 (atropisomer, axis not shown; (Sa)) [Example 95, (Sa)-8-methyl-5-(2-methylpyridin-3-yl)-7-(trifluoromethyl)imidazo[1,2-a]quinoxalin-4(5H)-one] | – | – | – | > 10000 | – | 1 to 100 |
| Cc1ncccc1-n1c(=O)c2nccn2c2cc(Cl)c(C(F)(F)F)cc21 (atropisomer, axis not shown; (Sa)) [Example 98, (Sa)-8-chloro-5-(2-methylpyridin-3-yl)-7-(trifluoromethyl)imidazo[1,2-a]quinoxalin4(5H)-one] | – | – | – | > 10000 | – | 1 to 100 |
| CCc1ncccc1-n1c(=O)c2nccn2c2cc(Cl)c(C(F)(F)F)cc21 (atropisomer, axis not shown; (Sa)) [Example 112, (Sa)-8-chloro-5-(2-ethylpyridin-3-yl)-7-(trifluoromethyl)imidazo[1,2-a]quinoxalin4(5H)-one] | – | – | – | – | – | > 10000 |
| Cc1ccccc1-n1c(=O)c2nccn2c2ccc(Cl)cc21 [Example 1, 7-chloro-5-(o-tolyl)imidazo[1,2-a]quinoxalin-4(5H)-one] | 100 to 1000 | > 10000 | 100 to 1000 | – | – | – |
| O=c1c2nccn2c2ccc(Cl)cc2n1-c1ccccc1 [Example 2, 7-chloro-5-phenylimidazo[1,2-a]quinoxalin-4(5H)-one] | 100 to 1000 | > 10000 | 1000 to 10000 | – | – | – |
| CCc1ccccc1-n1c(=O)c2nccn2c2ccc(Cl)cc21 [Example 3, 7-chloro-5-(2-ethylphenyl)imidazo[1,2-a]quinoxalin-4(5H)-one] | 100 to 1000 | > 10000 | 100 to 1000 | – | – | – |

Continued, in another order:

| IC50 [2] [nM] | IC50 [1, 5] [nM] | IC50 [3, 5] [nM] | Structure (SMILES) | IC50 ([1]; 120 hours of drug treatment) [nM] | IC50 ([3]; 120 hours of drug treatment) [nM] | IC50 [3, 4] [nM] |
| --- | --- | --- | --- | --- | --- | --- |
| 100 to 1000 | > 10000 | 100 to 1000 | Cc1cccc(-n2c(=O)c3nccn3c3ccc(Cl)cc32)c1C [Example 4, 7-chloro-5-(2,3-dimethylphenyl)imidazo[1,2-a]quinoxalin-4(5H)-one] | – | – | – |
| 100 to 1000 | > 10000 | 1000 to 10000 | CC(C)c1ccccc1-n1c(=O)c2nccn2c2ccc(Cl)cc21 [Example 5, 7-chloro-5-(2-isopropylphenyl)imidazo[1,2-a]quinoxalin-4(5H)-one] | – | – | – |
| 100 to 1000 | 1000 to 10000 | 100 to 1000 | Cc1c(F)cccc1-n1c(=O)c2nccn2c2ccc(Cl)cc21 [Example 6, 7-chloro-5-(3-fluoro-2-methylphenyl)imidazo[1,2-a]quinoxalin-4(5H)-one] | – | – | – |
| 100 to 1000 | > 10000 | 1000 to 10000 | O=c1c2nccn2c2ccc(Cl)cc2n1-c1ccccc1C(F)(F)F [Example 7, 7-chloro-5-(2-(trifluoromethyl)phenyl)imidazo[1,2-a]quinoxalin-4(5H)-one] | – | – | – |
| 1000 to 10000 | > 10000 | > 10000 | Cc1cc(F)ccc1-n1c(=O)c2nccn2c2ccc(Cl)cc21 [Example 8, 7-chloro-5-(4-fluoro-2-methylphenyl)imidazo[1,2-a]quinoxalin-4(5H)-one] | – | – | – |
| > 10000 | > 10000 | > 10000 | Cc1ccc(F)cc1-n1c(=O)c2nccn2c2ccc(Cl)cc21 [Example 9, 7-chloro-5-(5-fluoro-2-methylphenyl)imidazo[1,2-a]quinoxalin-4(5H)-one] | – | – | – |
| 1 to 100 | 100 to 1000 | 1 to 100 | Cc1c(F)cccc1-n1c(=O)c2nccn2c2ccc(C(F)(F)F)cc21 [Example 10, 5-(3-fluoro-2-methylphenyl)-7-(trifluoromethyl)imidazo[1,2-a]quinoxalin-4(5H)-one] | – | – | – |
| 100 to 1000 | 100 to 1000 | 1 to 100 | Cc1c(Cl)cccc1-n1c(=O)c2nccn2c2ccc(Cl)cc21 [Example 11, 7-chloro-5-(3-chloro-2-methylphenyl)imidazo[1,2-a]quinoxalin-4(5H)-one] | – | – | – |
| 100 to 1000 | > 10000 | 100 to 1000 | Cc1c(F)cccc1-n1c(=O)c2nccn2c2ccc(C3CC3)cc21 [Example 13, 7-cyclopropyl-5-(3-fluoro-2-methylphenyl)imidazo[1,2-a]quinoxalin-4(5H)-one] | – | – | – |
| 100 to 1000 | > 10000 | 100 to 1000 | COc1ccc2c(c1)n(-c1cccc(F)c1C)c(=O)c1nccn12 [Example 14, 5-(3-fluoro-2-methylphenyl)-7-methoxyimidazo[1,2-a]quinoxalin-4(5H)-one] | – | – | – |
| 1000 to 10000 | > 10000 | 100 to 1000 | Cc1c(F)cccc1-n1c(=O)c2nccn2c2ccc(OC(F)(F)F)cc21 [Example 15, 5-(3-fluoro-2-methylphenyl)-7-(trifluoromethoxy)imidazo[1,2-a]quinoxalin-4(5H)-one] | – | – | – |
